Experimental data: PubChem BioAssay (NCI)
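All cell lines were grown in 96-well plates and treated with compound for 48 hours. GI50 = concentration required for 50% inhibition of growth. TGI: total growth inhibition.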

Legend:
Assay in all cases: NCI anticancer screen, dose series, 48 h
SF-295 CNS = tested on: SF-295 CNS
COLO 205 colon = tested on: COLO 205 colon
HS 578T breast = tested on: HS 578T breast
SN12C renal = tested on: SN12C renal
SK-MEL-28 melanoma = tested on: SK-MEL-28 melanoma
UO-31 renal = tested on: UO-31 renal
NCI-H23 lung = tested on: NCI-H23 lung
NCI-H226 lung = tested on: NCI-H226 lung
OVCAR-5 ovarian = tested on: OVCAR-5 ovarian
NCI-H460 lung = tested on: NCI-H460 lung
HCT-15 colon = tested on: HCT-15 colon
SK-OV-3 ovarian = tested on: SK-OV-3 ovarian
BT-549 breast = tested on: BT-549 breast
NCI/ADR-RES ovarian = tested on: NCI/ADR-RES ovarian
UACC-62 melanoma = tested on: UACC-62 melanoma
T-47D breast = tested on: T-47D breast
EKVX NSCLC = tested on: EKVX NSCLC
RXF 393 renal = tested on: RXF 393 renal
MCF7 breast = tested on: MCF7 breast
SR leukemia = tested on: SR leukemia
SF-268 CNS = tested on: SF-268 CNS
U251 CNS = tested on: U251 CNS
MALME-3M melanoma = tested on: MALME-3M melanoma
K-562 leukemia = tested on: K-562 leukemia
LOX IMVI melanoma = tested on: LOX IMVI melanoma
PC-3 prostate = tested on: PC-3 prostate
SW-620 colon = tested on: SW-620 colon
OVCAR-8 ovarian = tested on: OVCAR-8 ovarian
MDA-MB-435 = tested on: MDA-MB-435
HL-60(TB) leukemia = tested on: HL-60(TB) leukemia
SF-539 CNS = tested on: SF-539 CNS
OVCAR-4 ovarian = tested on: OVCAR-4 ovarian
MDA-MB-231 breast = tested on: MDA-MB-231 breast
M14 melanoma = tested on: M14 melanoma
HT29 colon = tested on: HT29 colon
HCC-2998 colon = tested on: HCC-2998 colon
SK-MEL-2 melanoma = tested on: SK-MEL-2 melanoma
SK-MEL-5 melanoma = tested on: SK-MEL-5 melanoma
A549 NSCLC = tested on: A549 NSCLC
786-0 renal = tested on: 786-0 renal
ACHN renal = tested on: ACHN renal
HOP-62 NSCLC = tested on: HOP-62 NSCLC
A498 renal = tested on: A498 renal
MDA-N = tested on: MDA-N
TK-10 renal = tested on: TK-10 renal
CAKI-1 renal = tested on: CAKI-1 renal
RPMI-8226 leukemia = tested on: RPMI-8226 leukemia
OVCAR-3 ovarian = tested on: OVCAR-3 ovarian
DU-145 prostate = tested on: DU-145 prostate
KM12 colon = tested on: KM12 colon
UACC-257 melanoma = tested on: UACC-257 melanoma
NCI-H522 lung = tested on: NCI-H522 lung
HCT-116 colon = tested on: HCT-116 colon
MOLT-4 leukemia = tested on: MOLT-4 leukemia
CCRF-CEM leukemia = tested on: CCRF-CEM leukemia
SNB-75 CNS = tested on: SNB-75 CNS
IGROV1 ovarian = tested on: IGROV1 ovarian
HOP-92 NSCLC = tested on: HOP-92 NSCLC
SNB-19 CNS = tested on: SNB-19 CNS

CCCCCC[C@H]1C(=O)O[C@H](C)[C@H](NC(=O)c2cccc(NC=O)c2OC)C(=O)O[C@@H](C)[C@@H]1OC(=O)CCC (tested in a mixture with another compound)
GI50 (SF-295 CNS): 5.99 µM | TGI (SF-295 CNS): 20.8 µM | GI50 (COLO 205 colon): 12.6 µM | TGI (COLO 205 colon): 26.7 µM | GI50 (HS 578T breast): 13.1 µM | TGI (HS 578T breast): 38.6 µM | GI50 (SN12C renal): 16.2 µM | TGI (SN12C renal): 37.1 µM | GI50 (SK-MEL-28 melanoma): 16.2 µM | TGI (SK-MEL-28 melanoma): 33.3 µM | GI50 (UO-31 renal): 13.2 µM | TGI (UO-31 renal): 29.3 µM | GI50 (NCI-H23 lung): 9.53 µM | TGI (NCI-H23 lung): 49.2 µM | GI50 (NCI-H226 lung): 14.7 µM | TGI (NCI-H226 lung): 39.4 µM | GI50 (OVCAR-5 ovarian): 20.9 µM | TGI (OVCAR-5 ovarian): 47.6 µM | GI50 (NCI-H460 lung): 4.89 µM | TGI (NCI-H460 lung): 25.5 µM | GI50 (HCT-15 colon): 11.1 µM | TGI (HCT-15 colon): 33.3 µM | GI50 (SK-OV-3 ovarian): 24.2 µM | TGI (SK-OV-3 ovarian): 66.1 µM | GI50 (BT-549 breast): 11.9 µM | TGI (BT-549 breast): 35.5 µM | GI50 (NCI/ADR-RES ovarian): 8.63 µM | TGI (NCI/ADR-RES ovarian): 34.2 µM | GI50 (UACC-62 melanoma): 6.54 µM | TGI (UACC-62 melanoma): 21.2 µM | GI50 (T-47D breast): 11.2 µM | TGI (T-47D breast): 35.5 µM | GI50 (EKVX NSCLC): 6 µM | TGI (EKVX NSCLC): 24.2 µM | GI50 (RXF 393 renal): 15.3 µM | TGI (RXF 393 renal): 32.4 µM | GI50 (MCF7 breast): 33.4 µM | TGI (MCF7 breast): > 100 µM | GI50 (SR leukemia): 3.64 µM | TGI (SR leukemia): 18.8 µM | GI50 (SF-268 CNS): 13.7 µM | TGI (SF-268 CNS): 36.6 µM | GI50 (U251 CNS): 8.2 µM | TGI (U251 CNS): 21.5 µM | GI50 (MALME-3M melanoma): 15.3 µM | TGI (MALME-3M melanoma): 41.2 µM | GI50 (K-562 leukemia): 4.99 µM | TGI (K-562 leukemia): 33.9 µM | GI50 (LOX IMVI melanoma): 8.67 µM | TGI (LOX IMVI melanoma): 23.8 µM | GI50 (PC-3 prostate): 6.23 µM | TGI (PC-3 prostate): 26.7 µM | GI50 (SW-620 colon): 13 µM | TGI (SW-620 colon): 72.3 µM | GI50 (OVCAR-8 ovarian): 12.1 µM | TGI (OVCAR-8 ovarian): 33.4 µM | GI50 (MDA-MB-435): 9.6 µM | TGI (MDA-MB-435): 27.9 µM | GI50 (HL-60(TB) leukemia): 4.68 µM | TGI (HL-60(TB) leukemia): 19.9 µM | GI50 (SF-539 CNS): 15.5 µM | TGI (SF-539 CNS): 33.3 µM | GI50 (OVCAR-4 ovarian): 12.7 µM | TGI (OVCAR-4 ovarian): 29 µM | GI50 (MDA-MB-231 breast): 13.5 µM | TGI (MDA-MB-231 breast): 34.2 µM | GI50 (M14 melanoma): 16 µM | TGI (M14 melanoma): 38.3 µM | GI50 (HT29 colon): 5.98 µM | TGI (HT29 colon): 45.6 µM | GI50 (HCC-2998 colon): 14.9 µM | TGI (HCC-2998 colon): 38.2 µM | GI50 (SK-MEL-2 melanoma): 18.1 µM | TGI (SK-MEL-2 melanoma): 60.5 µM | GI50 (SK-MEL-5 melanoma): 3.94 µM | TGI (SK-MEL-5 melanoma): 14.5 µM | GI50 (A549 NSCLC): 7.24 µM | TGI (A549 NSCLC): 22.8 µM | GI50 (786-0 renal): 13.1 µM | TGI (786-0 renal): 27.1 µM | GI50 (ACHN renal): 10.1 µM | TGI (ACHN renal): 23.1 µM | GI50 (HOP-62 NSCLC): 16.9 µM | TGI (HOP-62 NSCLC): 40.1 µM | GI50 (A498 renal): 10 µM | TGI (A498 renal): 29.7 µM | GI50 (MDA-N): 11.1 µM | TGI (MDA-N): 45.2 µM | GI50 (TK-10 renal): 13.3 µM | TGI (TK-10 renal): 29.6 µM | GI50 (CAKI-1 renal): 9.71 µM | TGI (CAKI-1 renal): 24.4 µM | GI50 (RPMI-8226 leukemia): 12.2 µM | TGI (RPMI-8226 leukemia): 37.9 µM | GI50 (OVCAR-3 ovarian): 11.1 µM | TGI (OVCAR-3 ovarian): 24.9 µM | GI50 (DU-145 prostate): 11.7 µM | TGI (DU-145 prostate): 30.1 µM | GI50 (KM12 colon): 9.77 µM | TGI (KM12 colon): 31.4 µM | GI50 (UACC-257 melanoma): 2.81 µM | TGI (UACC-257 melanoma): 11.9 µM | GI50 (NCI-H522 lung): 13 µM | TGI (NCI-H522 lung): 34.4 µM | GI50 (HCT-116 colon): 9.89 µM | TGI (HCT-116 colon): 24.3 µM | GI50 (MOLT-4 leukemia): 5.64 µM | TGI (MOLT-4 leukemia): 26.6 µM | GI50 (CCRF-CEM leukemia): 3.81 µM | TGI (CCRF-CEM leukemia): 27.2 µM

CC(Oc1ccccc1Cl)C(=O)NN1C(=O)CC(=O)N(c2ccc(Cl)cc2)C1=S (stereo not drawn)
TGI (SNB-75 CNS): > 100 µM | TGI (SF-295 CNS): > 100 µM | TGI (COLO 205 colon): > 100 µM | TGI (HS 578T breast): > 100 µM | TGI (SN12C renal): > 100 µM | TGI (SK-MEL-28 melanoma): > 100 µM | TGI (UO-31 renal): > 100 µM | TGI (NCI-H23 lung): > 100 µM | TGI (NCI-H226 lung): > 100 µM | TGI (OVCAR-5 ovarian): > 100 µM | TGI (NCI-H460 lung): > 100 µM | TGI (HCT-15 colon): > 100 µM | TGI (SK-OV-3 ovarian): > 100 µM | TGI (BT-549 breast): > 100 µM | TGI (NCI/ADR-RES ovarian): > 100 µM | TGI (UACC-62 melanoma): > 100 µM | TGI (T-47D breast): > 100 µM | TGI (EKVX NSCLC): > 100 µM | TGI (RXF 393 renal): 90.4 µM | TGI (IGROV1 ovarian): > 100 µM | TGI (MCF7 breast): > 100 µM | TGI (SR leukemia): 54.4 µM | TGI (HOP-92 NSCLC): 63.2 µM | TGI (SF-268 CNS): > 100 µM | TGI (U251 CNS): > 100 µM | TGI (MALME-3M melanoma): > 100 µM | TGI (K-562 leukemia): > 100 µM | TGI (LOX IMVI melanoma): > 100 µM | TGI (SNB-19 CNS): > 100 µM | TGI (PC-3 prostate): > 100 µM | TGI (SW-620 colon): > 100 µM | TGI (OVCAR-8 ovarian): > 100 µM | TGI (MDA-MB-435): > 100 µM | TGI (HL-60(TB) leukemia): 8.68 µM | TGI (SF-539 CNS): > 100 µM | TGI (OVCAR-4 ovarian): > 100 µM | TGI (MDA-MB-231 breast): > 100 µM | TGI (M14 melanoma): > 100 µM | TGI (HT29 colon): > 100 µM | TGI (HCC-2998 colon): > 100 µM | TGI (SK-MEL-2 melanoma): 98.2 µM | TGI (SK-MEL-5 melanoma): > 100 µM | TGI (A549 NSCLC): > 100 µM | TGI (786-0 renal): > 100 µM | TGI (ACHN renal): > 100 µM | TGI (HOP-62 NSCLC): > 100 µM | TGI (A498 renal): 72.9 µM | TGI (MDA-N): > 100 µM | TGI (TK-10 renal): > 100 µM | TGI (CAKI-1 renal): > 100 µM | TGI (RPMI-8226 leukemia): > 100 µM | TGI (OVCAR-3 ovarian): > 100 µM | TGI (DU-145 prostate): > 100 µM | TGI (KM12 colon): > 100 µM | TGI (UACC-257 melanoma): > 100 µM | TGI (NCI-H522 lung): > 100 µM | TGI (HCT-116 colon): > 100 µM | TGI (MOLT-4 leukemia): 95.8 µM
